In US10737072B2, “Control catheters and methods for pulmonary suffusion and related therapies” (SUFFUSION TECHNOLOGIES LLC, priority 2012, dated 2020):
Read-outs that look alike come from different tables or passages of the source.

Assays:
[1] = tested on: primary and metastatic cancer; conditions: et al., cited from earlier work
[2] = tested on: primary and metastatic cancer; conditions: et al., cited from earlier work; remark: listed apart in the source
stage IV NSCLC [3] = assay: Thoracoscopic lung suffusion, phase I clinical trial; assay type: in vivo, human
Text: The term “suffusion” has been defined as the slow diffuse permeation of the tissues by an injectate during arterial or venous occlusion. Unlike methods for arterial infusion or isolated perfusion, those for suffusion require neither permanent occlusion nor recirculation. The technique involves isolating chemotherapy into the lung by interventional radiologic control of the pulmonary artery and endoscopic control of the pulmonary veins. The suffusion method was first described in a canine model in 2002. A minimally invasive approach and its short-term potential were established using a non-toxic tracer compound. Rapid permeation of the lung and 75% of tracer remaining isolated the lung for 30 minutes was observed.
One phase I clinical trial on four stage IV NSCLC patients has been conducted.

stage IV NSCLC [4] = conditions: cited from earlier work
[5] = Hendriks, 2004, 16 cases of resectable pulmonary metastases, followed by metastectomy
[6] = Schroder, 2002, 4 cases of metastatic sarcoma, following metastectomy
[7] = Burt, 2000, 8 cases of metastatic sarcoma

N[C@@H](Cc1ccc(N(CCCl)CCCl)cc1)C(=O)O [Melphalan]
Chemical pneumonitis (number of cases) [1, 5]: pneumonitis (2), cases | localized pulmonary edema (number of cases) [1, 5]: (3), pneumonia cases | pneumonia (number of cases) [1, 5]: (1), cases | pneumothorax (number of cases) [1, 5]: pneumothorax (1) cases

CO[C@@]12[C@H](COC(N)=O)C3=C(C(=O)C(C)=C(N)C3=O)N1C[C@@H]1N[C@@H]12 [Mitomycin C]
tumor volume reduced in ([2]; Neyazaki, 1969, 27 cases): 52%

N.N.[Cl][Pt][Cl] [Cisplatin]
patients who could not tolerate suffusion (stage IV NSCLC [3]; total of ten patients treated by suffusion (unpublished data)): One of 10 | patients with evaluable disease showing control or reduction of the main tumor in the suffused lung (stage IV NSCLC [3]; unpublished data, growth of tumor in other parts of the body despite systemic chemotherapy): 4 of 5 | complete response ([2]; So, 2004, 3 cases of locally advanced NSCLC, and carinal resection): 100% complete | reduction in tumor volume (stage IV NSCLC [4]; Demmy, et al., 2009, 4 cases of stage IV NSCLC, with systemic chemotherapy): 14%-96% | Tumor volume reduced (stage IV NSCLC [4]; four stage IV NSCLC patients, systemic chemotherapy began within 2 weeks of the suffusion): 14% to 96% | Interstitial and alveolar edema (number of cases) ([1]; Ratto, 1996, 6 cases of metastatic sarcoma): (2) cases | disease-free after 1 year [1, 6]: 75% disease- | localized pulmonary edema (number of cases) [1, 6]: (4), reduced cases | reduced pulmonary function at 3 weeks (number of cases) [1, 6]: weeks (3) cases

COc1cccc2c1C(=O)c1c(O)c3c(c(O)c1C2=O)C[C@@](O)(C(=O)CO)C[C@@H]3O[C@H]1C[C@H](N)[C@H](O)[C@H](C)O1 [Doxorubicin]
Pulmonary fibrosis (number of cases) [1, 7]: fibrosis (1), cases | reduced pulmonary function (number of cases) [1, 7]: function (7) cases | response [1, 7]: 0% response
